Measurements published in PMC12337661, “PIEZO1 mechanical insensitivity in generalized lymphatic dysplasia with the potential for pharmacological rescue” (iScience, 2025).

Key:
Type in all cases: cell-based
[1] = tested on: T-REx-293 cells, empty vector (vector control); assay: Intracellular Ca2+ measurement (fura-2), T-REx-293 cells transiently transfected with empty vector; conditions: 1 μM
Method: (§1) HEK 293 cell line was transiently transfected at 90% confluence using Lipofectamine 2000 (Invitrogen) in OptiMEM (Gibco). Briefly: 500 ng endotoxin-free DNA per 100μL OptiMEM was prepared alongside 3μL Lipofectamine 2000 per 100μL OptiMEM (Gibco). Both were incubated for 5 min and then mixed, and then incubated at room temperature (21°C–24°C) for 20–30 min. Finally, the transfection mix was gently added dropwise to the cells and the cells were placed in a humidified incubator at 37°C supplied with 5% CO2 for 5 h. Medium was replaced afterward, and cells were used for experimentation 48 h after transfection.
(§2) For intracellular Ca^2+ assays, cells were plated at 80–90% confluence in 96-well plates 24 h prior to recordings (6–8 × 10^4 cells per well). […] Cells were washed with SBS and incubated at room temperature for 20 min prior to recordings. Equal volumes of 2x concentrated compounds were injected to test for acute channel activation. Pre-incubation with compounds occurred during the 20 min prior to recordings. To expose cell membranes to hypo-osmolality, an equal volume of hypotonic SBS (containing only 35 mM NaCl) was injected onto the cells. Measurements were made on a fluorescence plate reader (Flexstation III, Molecular Devices) at room temperature (21 ± 2°C). Fura-2 was excited at 340 nm and 380 nm and emitted light collected at 510 nm, with measurements shown as the change in fluorescence (F) ratio (ΔF340/380).
(§3) KC41 (Dooku1) was prepared as described.[28] All purchased chemicals and solvents were used without further purification unless otherwise stated. All compounds were at least 95% pure by 1H NMR. 1H Nuclear Magnetic Resonance spectra were recorded at 500 MHz using a Bruker DRX 500 instrument or at 400 MHz using a Bruker DPX 400. 1H spectra are referenced based on the residual proton in the solvent (e.g., the CHCl3, 0.01% in 99.99% CDCl3). Coupling constants (J) are reported to the nearest 0.1 Hz. 13C NMR spectra were recorded at 125 MHz on 500 MHz spectrometers or at 100 MHz on 400 MHz spectrometers. LC-MS was performed on a Bruker Daltronics running a gradient of increasing acetonitrile (5–95%) in H2O both containing 0.1% formic acid at 1 mL.min^−1, on a short path C18 reverse phase column, detecting compounds with both a diode array detector and a Bruker mass spectrum analyser. HRMS was performed on a Bruker Daltonics micrOTOF using positive electrospray ionisation (ES+). Automated column chromatograph was carried out using a Biotage Isolera Four, using either Sfär Silica D or KP-Silica cartridges. HPLC was performed on an Agilent 1290 Infinity Series equipped with a UV detector and Hyperprep C18 reverse phase column. Key to NMR abbreviations: s (singlet), br s (broad singlet) d (doublet), dd (doublet of doublets), ddd (doublet of doublets of doublets), t (triplet), dt (doublet of triples), q (quartet), m (multiplet), ap. t (apparent triplet). For experiments, Yoda1 and its analogues were prepared as 10 mM stock solutions in 100% dimethyl sulfoxide (DMSO) before serial dilution in DMSO and final dilution in aqueous solution. Cells were exposed to 0.1% DMSO for all concentrations of the compounds from 0 to 10 μM.

R2335Q hPIEZO1 = target: T1, R2335Q hPIEZO1 (Homo sapiens, UniProt Q92508, R2335Q); assay: Intracellular Ca2+ measurement (fura-2), T-REx-293 cells transiently transfected; conditions: 1 μM Y1, versus WT
T1 construct: expressed in transfected cells; host or cells: T-REx-293 (modified HEK293), transient
T1 sequence (Q92508 whole entry R2335Q): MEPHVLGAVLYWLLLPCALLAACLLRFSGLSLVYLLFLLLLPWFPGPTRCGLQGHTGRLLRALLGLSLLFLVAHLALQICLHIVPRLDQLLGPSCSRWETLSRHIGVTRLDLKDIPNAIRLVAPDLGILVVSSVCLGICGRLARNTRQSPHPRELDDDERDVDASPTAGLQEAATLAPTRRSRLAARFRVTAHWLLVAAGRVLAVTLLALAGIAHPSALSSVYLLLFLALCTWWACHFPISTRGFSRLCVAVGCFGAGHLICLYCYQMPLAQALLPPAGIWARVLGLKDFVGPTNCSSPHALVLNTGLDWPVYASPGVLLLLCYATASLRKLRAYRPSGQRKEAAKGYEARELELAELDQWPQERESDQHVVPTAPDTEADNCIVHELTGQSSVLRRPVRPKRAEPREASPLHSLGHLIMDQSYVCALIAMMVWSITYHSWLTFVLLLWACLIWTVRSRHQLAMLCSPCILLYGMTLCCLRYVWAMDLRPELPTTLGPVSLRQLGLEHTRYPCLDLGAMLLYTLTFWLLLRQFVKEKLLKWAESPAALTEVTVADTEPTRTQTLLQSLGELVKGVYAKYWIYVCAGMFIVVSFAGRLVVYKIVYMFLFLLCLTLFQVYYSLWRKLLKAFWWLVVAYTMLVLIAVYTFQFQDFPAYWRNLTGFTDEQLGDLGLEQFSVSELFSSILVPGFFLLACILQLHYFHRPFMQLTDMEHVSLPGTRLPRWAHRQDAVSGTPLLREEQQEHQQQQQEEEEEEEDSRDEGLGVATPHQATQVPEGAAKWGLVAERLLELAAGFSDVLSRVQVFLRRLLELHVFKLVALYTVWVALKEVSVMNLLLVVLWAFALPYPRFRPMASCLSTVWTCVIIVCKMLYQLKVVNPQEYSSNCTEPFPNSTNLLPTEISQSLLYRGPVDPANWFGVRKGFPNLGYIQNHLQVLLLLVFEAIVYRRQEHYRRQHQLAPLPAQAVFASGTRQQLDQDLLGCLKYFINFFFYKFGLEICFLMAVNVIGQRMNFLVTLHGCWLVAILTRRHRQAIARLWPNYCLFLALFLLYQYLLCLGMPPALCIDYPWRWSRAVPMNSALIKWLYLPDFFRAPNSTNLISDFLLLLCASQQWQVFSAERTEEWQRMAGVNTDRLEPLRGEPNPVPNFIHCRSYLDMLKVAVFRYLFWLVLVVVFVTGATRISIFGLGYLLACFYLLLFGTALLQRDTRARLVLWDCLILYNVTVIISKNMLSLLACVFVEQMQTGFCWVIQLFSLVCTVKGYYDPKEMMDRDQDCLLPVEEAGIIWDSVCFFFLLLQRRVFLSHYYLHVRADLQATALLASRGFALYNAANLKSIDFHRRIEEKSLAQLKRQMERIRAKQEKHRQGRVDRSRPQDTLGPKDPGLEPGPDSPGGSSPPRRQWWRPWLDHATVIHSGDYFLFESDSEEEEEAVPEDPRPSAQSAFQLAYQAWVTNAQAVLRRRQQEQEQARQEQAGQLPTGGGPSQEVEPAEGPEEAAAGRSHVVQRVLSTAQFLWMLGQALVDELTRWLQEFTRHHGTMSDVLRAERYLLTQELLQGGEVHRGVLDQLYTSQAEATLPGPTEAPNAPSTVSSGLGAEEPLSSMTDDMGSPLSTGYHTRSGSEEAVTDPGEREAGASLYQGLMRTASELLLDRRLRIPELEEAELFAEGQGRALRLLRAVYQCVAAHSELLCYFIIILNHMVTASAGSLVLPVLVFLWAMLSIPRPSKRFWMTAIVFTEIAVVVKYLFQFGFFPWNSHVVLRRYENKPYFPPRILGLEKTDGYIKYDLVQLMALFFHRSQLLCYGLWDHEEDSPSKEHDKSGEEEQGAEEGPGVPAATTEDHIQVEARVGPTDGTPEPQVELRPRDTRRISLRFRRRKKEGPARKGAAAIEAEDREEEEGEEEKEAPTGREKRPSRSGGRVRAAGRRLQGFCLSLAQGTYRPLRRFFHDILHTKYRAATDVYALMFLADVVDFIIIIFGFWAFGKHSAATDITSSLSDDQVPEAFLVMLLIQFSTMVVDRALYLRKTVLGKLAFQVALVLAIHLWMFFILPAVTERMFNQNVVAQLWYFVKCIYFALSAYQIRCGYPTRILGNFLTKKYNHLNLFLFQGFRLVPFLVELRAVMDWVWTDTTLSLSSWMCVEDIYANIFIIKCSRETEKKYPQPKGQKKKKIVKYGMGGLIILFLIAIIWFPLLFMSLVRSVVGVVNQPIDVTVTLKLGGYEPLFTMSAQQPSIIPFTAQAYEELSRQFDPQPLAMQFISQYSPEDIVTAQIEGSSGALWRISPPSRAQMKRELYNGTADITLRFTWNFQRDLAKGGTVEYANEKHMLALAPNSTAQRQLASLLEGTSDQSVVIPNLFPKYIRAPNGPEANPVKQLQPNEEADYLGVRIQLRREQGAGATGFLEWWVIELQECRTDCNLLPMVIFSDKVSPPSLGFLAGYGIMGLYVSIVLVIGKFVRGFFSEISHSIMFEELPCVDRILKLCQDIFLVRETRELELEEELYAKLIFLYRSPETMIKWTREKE
Method: as §1, §2, §3

E829V hPIEZO1 = target: T2, E829V hPIEZO1 (Homo sapiens, UniProt Q92508, E829V); assay: as above; conditions: 1 μM Y1, versus WT
T2 construct: expressed in transfected cells; host or cells: T-REx-293 (modified HEK293), transient
T2 sequence (Q92508 whole entry E829V): as the sequence (Q92508 whole entry R2335Q) above, with E829V, Q2335R counted along it
Method: as §1, §2, §3

I2270T hPIEZO1 = target: T3, I2270T hPIEZO1 (Homo sapiens, UniProt Q92508, I2270T); assay: as above
T3 construct: expressed in transfected cells; host or cells: T-REx-293 (modified HEK293), transient
T3 sequence (Q92508 whole entry I2270T): as the sequence (Q92508 whole entry R2335Q) above, with I2270T, Q2335R counted along it
Method: as §1, §2, §3

WT hPIEZO1 = target: T4, WT hPIEZO1 (Homo sapiens, UniProt Q92508); assay: as above; conditions: 1 μM
T4 construct: expressed in transfected cells; host or cells: T-REx-293 (modified HEK293), transient
T4 sequence (Q92508 whole entry): as the sequence (Q92508 whole entry R2335Q) above, with Q2335R counted along it
Method: as §1, §2, §3

Clc1cccc(Cl)c1CSc1nnc(-c2cnccn2)s1 [Yoda1]
fluorescence (ΔFratio) ([1]; time 0 s): 0.00237 | fluorescence (ΔFratio) ([1]; time 5 s): -0.00988 | fluorescence (ΔFratio) ([1]; time 10 s): 0.01607 | fluorescence (ΔFratio) ([1]; time 15 s): 0.00395 | fluorescence (ΔFratio) ([1]; time 20 s): -3.91E-04 | fluorescence (ΔFratio) ([1]; time 25 s): -0.01211 | fluorescence (ΔFratio) ([1]; time 30 s): -0.08353 | fluorescence (ΔFratio) ([1]; time 35 s): 0.00717 | fluorescence (ΔFratio) ([1]; time 40 s): 0.03324 | fluorescence (ΔFratio) ([1]; time 45 s): 0.05289 | fluorescence (ΔFratio) ([1]; time 50 s): 0.03768 | fluorescence (ΔFratio) ([1]; time 55 s): 0.03322 | fluorescence (ΔFratio) ([1]; time 60 s): 0.03103 | fluorescence (ΔFratio) ([1]; time 65 s): 0.02272 | fluorescence (ΔFratio) ([1]; time 70 s): 0.00255 | fluorescence (ΔFratio) ([1]; time 75 s): 0.00791 | fluorescence (ΔFratio) ([1]; time 80 s): -0.00287 | fluorescence (ΔFratio) ([1]; time 85 s): 0.01077 | fluorescence (ΔFratio) ([1]; time 90 s): -0.01792 | fluorescence (ΔFratio) ([1]; time 95 s): -0.01119 | fluorescence (ΔFratio) ([1]; time 100 s): 0.01819 | fluorescence (ΔFratio) ([1]; time 105 s): 8.16E-04 | fluorescence (ΔFratio) ([1]; time 110 s): 0.00558 | fluorescence (ΔFratio) ([1]; time 115 s): 0.00369 | fluorescence (ΔFratio) ([1]; time 120 s): 7.66E-04 | fluorescence (ΔFratio) ([1]; time 125 s): 0.00667 | Effect on hPIEZO1 channel function (R2335Q hPIEZO1): reduced 1 μM Y1 effect | Effect on hPIEZO1 channel function (E829V hPIEZO1): reduced 1 μM Y1 effect | Effect on hPIEZO1 channel function (I2270T hPIEZO1; 1 μM Y1, versus WT): loss of MA: LOF; reduced 1 μM Y1 effect | Ca2+ signal 30-60 s after application, normalized to WT, vector control subtracted, Mean (I2270T hPIEZO1; 1 μM, n = 4): 0.1013 | fluorescence (ΔFratio) (I2270T hPIEZO1; 1 μM, time 0 s): 6.26E-04 | fluorescence (ΔFratio) (I2270T hPIEZO1; 1 μM, time 5 s): -0.00991 | fluorescence (ΔFratio) (I2270T hPIEZO1; 1 μM, time 10 s): -0.00857 | fluorescence (ΔFratio) (I2270T hPIEZO1; 1 μM, time 15 s): 0.00155 | fluorescence (ΔFratio) (I2270T hPIEZO1; 1 μM, time 20 s): 0.00344 | fluorescence (ΔFratio) (I2270T hPIEZO1; 1 μM, time 25 s): 0.01286 | fluorescence (ΔFratio) (I2270T hPIEZO1; 1 μM, time 30 s): -0.01023 | fluorescence (ΔFratio) (I2270T hPIEZO1; 1 μM, time 35 s): -0.00138 | fluorescence (ΔFratio) (I2270T hPIEZO1; 1 μM, time 40 s): 0.07241 | fluorescence (ΔFratio) (I2270T hPIEZO1; 1 μM, time 45 s): 0.05056 | fluorescence (ΔFratio) (I2270T hPIEZO1; 1 μM, time 50 s): 0.06632 | fluorescence (ΔFratio) (I2270T hPIEZO1; 1 μM, time 55 s): 0.05818 | fluorescence (ΔFratio) (I2270T hPIEZO1; 1 μM, time 60 s): 0.06863 | fluorescence (ΔFratio) (I2270T hPIEZO1; 1 μM, time 65 s): 0.05602 | fluorescence (ΔFratio) (I2270T hPIEZO1; 1 μM, time 70 s): 0.06799 | fluorescence (ΔFratio) (I2270T hPIEZO1; 1 μM, time 75 s): 0.05186 | fluorescence (ΔFratio) (I2270T hPIEZO1; 1 μM, time 80 s): 0.04949 | fluorescence (ΔFratio) (I2270T hPIEZO1; 1 μM, time 85 s): 0.05597 | fluorescence (ΔFratio) (I2270T hPIEZO1; 1 μM, time 90 s): 0.06467 | fluorescence (ΔFratio) (I2270T hPIEZO1; 1 μM, time 95 s): 0.02814 | fluorescence (ΔFratio) (I2270T hPIEZO1; 1 μM, time 100 s): 0.04731 | fluorescence (ΔFratio) (I2270T hPIEZO1; 1 μM, time 105 s): 0.04051 | fluorescence (ΔFratio) (I2270T hPIEZO1; 1 μM, time 110 s): 0.04381 | fluorescence (ΔFratio) (I2270T hPIEZO1; 1 μM, time 115 s): 0.05647 | fluorescence (ΔFratio) (I2270T hPIEZO1; 1 μM, time 120 s): 0.06513 | fluorescence (ΔFratio) (I2270T hPIEZO1; 1 μM, time 125 s): 0.04171 | fluorescence (ΔFratio) (WT hPIEZO1; time 0 s): -0.01302 | fluorescence (ΔFratio) (WT hPIEZO1; time 5 s): -0.00371 | fluorescence (ΔFratio) (WT hPIEZO1; time 10 s): 0.00261 | fluorescence (ΔFratio) (WT hPIEZO1; time 15 s): 0.01821 | fluorescence (ΔFratio) (WT hPIEZO1; time 20 s): -9.97E-05 | fluorescence (ΔFratio) (WT hPIEZO1; time 25 s): -0.004 | fluorescence (ΔFratio) (WT hPIEZO1; time 30 s): -0.05053 | fluorescence (ΔFratio) (WT hPIEZO1; time 35 s): 0.02247 | fluorescence (ΔFratio) (WT hPIEZO1; time 40 s): 0.1718 | fluorescence (ΔFratio) (WT hPIEZO1; time 45 s): 0.1972 | fluorescence (ΔFratio) (WT hPIEZO1; time 50 s): 0.2136 | fluorescence (ΔFratio) (WT hPIEZO1; time 55 s): 0.2004 | fluorescence (ΔFratio) (WT hPIEZO1; time 60 s): 0.1986 | fluorescence (ΔFratio) (WT hPIEZO1; time 65 s): 0.1996 | fluorescence (ΔFratio) (WT hPIEZO1; time 70 s): 0.1871 | fluorescence (ΔFratio) (WT hPIEZO1; time 75 s): 0.1803 | fluorescence (ΔFratio) (WT hPIEZO1; time 80 s): 0.1839 | fluorescence (ΔFratio) (WT hPIEZO1; time 85 s): 0.1791 | fluorescence (ΔFratio) (WT hPIEZO1; time 90 s): 0.1817 | fluorescence (ΔFratio) (WT hPIEZO1; time 95 s): 0.1659 | fluorescence (ΔFratio) (WT hPIEZO1; time 100 s): 0.1565 | fluorescence (ΔFratio) (WT hPIEZO1; time 105 s): 0.1608 | fluorescence (ΔFratio) (WT hPIEZO1; time 110 s): 0.1552 | fluorescence (ΔFratio) (WT hPIEZO1; time 115 s): 0.1355 | fluorescence (ΔFratio) (WT hPIEZO1; time 120 s): 0.1385 | fluorescence (ΔFratio) (WT hPIEZO1; time 125 s): 0.172
